Literature values as cited in US20260110003A1 (Solugen, Inc., priority 2022, published 2026).

B1: ZmPDC: Zymomonas mobilis pyruvate decarboxylase (protein, UniProt P06672 1-568, looked up)
Pyruvate decarboxylase: MSYTVGTYLAERLVQIGLKHHFAVAGDYNLVLLDNLLLNKNMEQVYCCNELNCGFSAEGYARAKGAAAAVVTYSVGALSAFDAIGGAYAENLPVILISGAPNNNDHAAGHVLHHALGKTDYHYQLEMAKNITAAAEAIYTPEEAPAKIDHVIKTALREKKPVYLEIACNIASMPCAAPGPASALFNDEASDEASLNAAVEETLKFIANRDKVAVLVGSKLRAAGAEEAAVKFADALGGAVATMAAAKSFFPEENPHYIGTSWGEVSYPGVEKTMKEADAVIALAPVFNDYSTTGWTDIPDPKKLVLAEPRSVVVNGIRFPSVHLKDYLTRLAQKVSKKTGALDFFKSLNAGELKKAAPADPSAPLVNAEIARQVEALLTPNTTVIAETGDSWFNAQRMKLPNGARVEYEMQWGHIGWSVPAAFGYAVGAPERRNILMVGDGSFQLTAQEVAQMVRLKLPVIIFLINNYGYTIEVMIHDGPYNNIKNWDYAGLMEVFNGNGGYDSGAGKGLKAKTGGELAEAIKVALANTDGPTLIECFIGREDCTEELVKWGKRVAAANSRKPVNKLL

Columns and labels:
[1] = for Prefers Phase: aqueous (Aq) or organic (Org) phase in the MPER; for LogP: partition coefficient, <0 preference for aqueous, >0 for organic
[2] = relative to VvSucA

Molecule	Prefers Phase [1]	LogP [1]	more acetoin produced than VvSucA [2] [%]
CCOC(=O)C(C)=O [Ethyl Pyruvate]	Org	0.4	
CC=O [Acetaldehyde]	Aq	−0.34	
CCO [Ethanol]	Both		
CC(=O)C(=O)O [Pyruvic Acid]	Aq	−0.3	
CC(=O)C(=O)O [Pyruvate ion]	Aq	<<0	
B1			57
